From US20100254948A1, “PROCESS FOR THE PREPARATION OF GAMMA-AMINO BUTYRIC ACID (GABA) BY THE USE OF LACTIC ACID BACTERIA (LAB) ON AGRO-AND FOOD-INDUSTRY SURPLUS” (Giuliani S.p.A, priority 2007, published 2010) come the findings set out here.

What all share (format): cell-based, human
One test has as its system philagrin (FLG). Briefly: Real time PCR of philagrin (FLG) in FT-skin model. The text has this: (§1) 2) The ‘full thickness skin model’ (FT) (Phenion GmbH & Co., Frankfurt am Main, Germany) is a multi-layer human skin model consisting of keratinocytes and fibroblasts stemming from the same donor. After a culture period of five weeks, the ‘full thickness’ was fully developed and comprised epidermis, basal membrane and derma. The model was characterized with respect to the expression of fundamental markers of differentiation at the epidermis level (cytokeratin 10, philagrin, transglutaminase and involucrin), at the derma-epidermis junctions (laminin and collagen IV) and at dermal level (elastin fibronectin). The diameter of the model FT is of 1.3 cm.
(§2) In this study the following genes were employed:
(§3) The technique employs Taqman probes for detecting the fluorescent signal and it is very sensitive, consisting in the amplification and quantification of a specific sequence of nucleic acids. The detection of the PCR product occurs in real time. The quantification of DNA, cDNA or RNA is carried out by determining the cycle in which he PCR product can be detected for the first time, thus not at the moment when the reaction has become saturated. The quantification of the product occurs through the detection of fluorescence measured in each cycle; the strength of the signal is directly proportional to the amount of the amplified product. […]
(§4) Each biological sample is evaluated in triple tests. […]

In test [1] the test system is hyaluronate synthetase (HAS1). In words: Real time PCR of hyaluronate synthetase (HAS1) in FT-skin model.
Excerpt: as §1, §2, §3, §4

Test [2] deals with GCLC (glutamate-cysteinyl ligase). In words: Real time PCR of glutamate-cysteinyl ligase (GCLC) in FT-skin model. Conditions: 1% Biomass or GABA 1 mm dose, from 8 h.
Excerpt: as §1, §2, §3, §4

In the next test the test system is involucrin (IVL). Briefly: Real time PCR of involucrin (IVL) in FT-skin model. Conditions: 8, 24, 48 and 72 hours, repeated application for 3 days.
Excerpt: as §1, §2, §3, §4

Test [3] concerns GSS (glutatione synthetase). In words: Real time PCR of glutatione synthetase (GSS) in FT-skin model. The conditions noted are these: 24 hours, expression values very low and meaningless.
Excerpt: as §1, §2, §3, §4

The structures appear in SMILES notation. “Also recorded” adds a separate entry of the source.

Consider `NCCCC(=O)O` [GABA, gamma-aminobutyric acid], for which the philagrin gene over-expression entry was “evident” in the test on philagrin (FLG) (24 hours) and “significative increase” in the test on philagrin (FLG) (72 hours (repeated application for 3 days)). Moreover, in test [1] (24 hours, 1% Biomass or GABA 1 mm dose, high standard deviation), the “hyaluronate synthetase (HAS) expression with respect to control sample” value was “increased”. For the same molecule, the “hyaluronate synthetase (HAS) expression” value in test [1] (48 hours, GABA 1 mm dose) is on record as “increased”. In test [2], the “GCLC gene expression (RT-PCR)” value is reported as “No gene modulation”. Further, the involucrin gene modulation entry in the test with involucrin (IVL) was “no significative modulation; also recorded: unmodulated”. The “GSS gene modulation (RT-PCR)” value in test [3] is recorded as “just as a tendency”.
